Measured values from patent publication US8158636B2, “Compounds and methods for kinase modulation, and indications therefor” (Plexxikon Inc., priority 2008, dated 2012).

Columns and labels:
Format in all cases: biochemical
[1] = molecular target: C-Raf (Homo sapiens, UniProt P04049); experiment: Kinase activity assay, C-Raf; details: Table 1d; read-out: activity toward kinase C-Raf, IC50
Text: (§1) Assays for the activity of kinases, including, but not limited to, Fms, Kit, B-Raf, B-Raf V600E, c-Raf-1, and TrkA are known in the art, for example as described in US Patent Publication Number US20070032519 and U.S. patent application Ser. No. 11/473,347 (see also, PCT publication WO2007002433), the disclosures of which are hereby incorporated by reference with respect to such assays.

[2] = molecular target: Kdr (Homo sapiens, UniProt P35968); experiment: Kinase activity assay, Kdr; details: Table 1i; read-out: activity toward kinase Kdr, IC50
Kdr, sequence (P35968 20-1356): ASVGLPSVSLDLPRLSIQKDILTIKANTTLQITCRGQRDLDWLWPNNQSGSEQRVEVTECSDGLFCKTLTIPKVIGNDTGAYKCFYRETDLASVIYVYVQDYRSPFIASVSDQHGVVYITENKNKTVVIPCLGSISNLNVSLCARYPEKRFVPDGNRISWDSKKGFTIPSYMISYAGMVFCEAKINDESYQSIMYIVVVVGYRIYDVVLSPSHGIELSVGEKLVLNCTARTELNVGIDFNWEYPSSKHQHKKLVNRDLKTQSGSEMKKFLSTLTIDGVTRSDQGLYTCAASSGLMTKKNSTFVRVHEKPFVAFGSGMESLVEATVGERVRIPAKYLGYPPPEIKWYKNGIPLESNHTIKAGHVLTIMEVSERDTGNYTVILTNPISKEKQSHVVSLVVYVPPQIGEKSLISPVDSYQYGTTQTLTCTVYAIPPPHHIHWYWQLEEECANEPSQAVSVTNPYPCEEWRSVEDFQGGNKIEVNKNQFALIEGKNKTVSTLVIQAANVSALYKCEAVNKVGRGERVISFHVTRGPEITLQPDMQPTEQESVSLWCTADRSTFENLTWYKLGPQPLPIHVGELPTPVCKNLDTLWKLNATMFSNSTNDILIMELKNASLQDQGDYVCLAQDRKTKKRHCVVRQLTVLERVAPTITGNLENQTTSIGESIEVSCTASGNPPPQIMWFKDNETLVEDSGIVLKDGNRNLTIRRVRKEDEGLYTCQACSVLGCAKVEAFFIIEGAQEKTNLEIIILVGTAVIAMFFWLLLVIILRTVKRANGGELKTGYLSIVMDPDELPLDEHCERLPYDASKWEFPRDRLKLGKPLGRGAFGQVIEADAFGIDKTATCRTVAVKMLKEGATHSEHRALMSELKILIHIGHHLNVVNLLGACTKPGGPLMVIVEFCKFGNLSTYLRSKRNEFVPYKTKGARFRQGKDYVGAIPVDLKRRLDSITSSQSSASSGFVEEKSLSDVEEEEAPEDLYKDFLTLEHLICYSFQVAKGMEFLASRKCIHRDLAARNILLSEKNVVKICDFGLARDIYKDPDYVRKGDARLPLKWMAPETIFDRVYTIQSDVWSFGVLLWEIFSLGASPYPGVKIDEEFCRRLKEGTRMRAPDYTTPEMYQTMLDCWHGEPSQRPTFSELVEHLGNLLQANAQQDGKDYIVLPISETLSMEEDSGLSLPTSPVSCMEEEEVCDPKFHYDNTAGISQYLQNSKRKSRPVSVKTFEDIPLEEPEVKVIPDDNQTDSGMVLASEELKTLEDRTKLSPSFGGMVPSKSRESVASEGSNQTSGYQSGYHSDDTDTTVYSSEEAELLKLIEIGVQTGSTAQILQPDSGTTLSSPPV
Text: as §1

[3] = molecular target: Fms (Homo sapiens, UniProt P07333); experiment: Kinase activity assay, Fms; details: Table 1h; read-out: activity toward kinase Fms, IC50
Fms, sequence (P07333 20-972): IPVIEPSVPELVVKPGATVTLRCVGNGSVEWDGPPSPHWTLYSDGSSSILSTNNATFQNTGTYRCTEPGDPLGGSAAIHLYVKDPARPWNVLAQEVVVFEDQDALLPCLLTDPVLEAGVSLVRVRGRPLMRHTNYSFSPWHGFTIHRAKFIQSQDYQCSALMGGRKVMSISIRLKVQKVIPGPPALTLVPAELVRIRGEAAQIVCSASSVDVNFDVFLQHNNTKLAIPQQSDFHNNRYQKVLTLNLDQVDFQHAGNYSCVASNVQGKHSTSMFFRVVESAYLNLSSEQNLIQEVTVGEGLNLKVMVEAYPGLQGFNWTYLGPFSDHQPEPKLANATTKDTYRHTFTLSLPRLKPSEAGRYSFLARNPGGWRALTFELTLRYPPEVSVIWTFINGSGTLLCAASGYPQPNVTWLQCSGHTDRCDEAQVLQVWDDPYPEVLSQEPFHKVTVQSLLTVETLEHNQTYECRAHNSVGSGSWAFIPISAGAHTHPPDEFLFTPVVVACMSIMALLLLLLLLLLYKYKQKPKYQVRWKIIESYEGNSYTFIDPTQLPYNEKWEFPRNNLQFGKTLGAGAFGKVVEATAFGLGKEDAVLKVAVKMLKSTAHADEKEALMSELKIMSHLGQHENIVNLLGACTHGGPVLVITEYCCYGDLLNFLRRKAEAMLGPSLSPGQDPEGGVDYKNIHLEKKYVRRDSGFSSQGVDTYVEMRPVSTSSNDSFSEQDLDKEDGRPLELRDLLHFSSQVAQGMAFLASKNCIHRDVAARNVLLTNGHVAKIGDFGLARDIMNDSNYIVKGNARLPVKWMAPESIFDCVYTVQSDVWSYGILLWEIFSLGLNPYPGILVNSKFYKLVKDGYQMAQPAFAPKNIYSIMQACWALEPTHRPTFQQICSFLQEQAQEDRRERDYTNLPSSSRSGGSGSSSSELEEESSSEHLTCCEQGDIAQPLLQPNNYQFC
Text: as §1

[4] = molecular target: B-Raf V600E (Homo sapiens, UniProt P15056, V600E); experiment: Kinase activity assay, B-Raf V600E; details: Table 1c; read-out: activity toward kinase B-Raf V600E, IC50
B-Raf V600E, sequence (P15056 whole entry V600E): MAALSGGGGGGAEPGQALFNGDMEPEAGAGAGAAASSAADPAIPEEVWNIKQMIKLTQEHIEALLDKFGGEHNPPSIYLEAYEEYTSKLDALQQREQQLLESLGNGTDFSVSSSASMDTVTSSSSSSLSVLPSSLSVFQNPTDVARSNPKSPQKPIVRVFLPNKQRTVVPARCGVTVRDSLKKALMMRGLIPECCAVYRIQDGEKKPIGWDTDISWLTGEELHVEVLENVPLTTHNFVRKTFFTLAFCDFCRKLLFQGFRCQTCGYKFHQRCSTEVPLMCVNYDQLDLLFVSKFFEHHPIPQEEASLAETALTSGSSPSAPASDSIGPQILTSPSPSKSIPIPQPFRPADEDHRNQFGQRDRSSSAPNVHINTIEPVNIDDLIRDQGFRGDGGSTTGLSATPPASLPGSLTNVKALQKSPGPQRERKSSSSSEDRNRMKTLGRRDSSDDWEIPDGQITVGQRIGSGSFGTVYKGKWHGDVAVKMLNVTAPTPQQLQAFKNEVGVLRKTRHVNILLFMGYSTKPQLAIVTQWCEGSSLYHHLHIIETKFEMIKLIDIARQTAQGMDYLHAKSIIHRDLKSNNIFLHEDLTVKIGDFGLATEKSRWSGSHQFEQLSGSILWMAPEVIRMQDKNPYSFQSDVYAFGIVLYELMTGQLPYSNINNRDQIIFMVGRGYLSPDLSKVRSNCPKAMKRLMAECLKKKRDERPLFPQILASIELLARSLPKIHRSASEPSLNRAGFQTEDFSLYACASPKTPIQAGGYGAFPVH
Text: as §1

[5] = molecular target: Kit (Homo sapiens, UniProt P10721); experiment: Kinase activity assay, Kit; details: Table 1j; read-out: activity toward kinase Kit, IC50
Text: as §1

[6] = molecular target: B-Raf (Homo sapiens, UniProt P15056); experiment: Kinase activity assay, B-Raf; details: Table 1b; read-out: activity toward kinase B-Raf, IC50
B-Raf, sequence (P15056 whole entry): as the sequence (P15056 whole entry V600E) above, with E600V counted along it
Text: as §1

[7] = molecular target: TrkA (Homo sapiens, UniProt P04629); experiment: Kinase activity assay, TrkA; details: Table 1m; read-out: activity toward kinase TrkA, IC50
TrkA, sequence (P04629 33-796): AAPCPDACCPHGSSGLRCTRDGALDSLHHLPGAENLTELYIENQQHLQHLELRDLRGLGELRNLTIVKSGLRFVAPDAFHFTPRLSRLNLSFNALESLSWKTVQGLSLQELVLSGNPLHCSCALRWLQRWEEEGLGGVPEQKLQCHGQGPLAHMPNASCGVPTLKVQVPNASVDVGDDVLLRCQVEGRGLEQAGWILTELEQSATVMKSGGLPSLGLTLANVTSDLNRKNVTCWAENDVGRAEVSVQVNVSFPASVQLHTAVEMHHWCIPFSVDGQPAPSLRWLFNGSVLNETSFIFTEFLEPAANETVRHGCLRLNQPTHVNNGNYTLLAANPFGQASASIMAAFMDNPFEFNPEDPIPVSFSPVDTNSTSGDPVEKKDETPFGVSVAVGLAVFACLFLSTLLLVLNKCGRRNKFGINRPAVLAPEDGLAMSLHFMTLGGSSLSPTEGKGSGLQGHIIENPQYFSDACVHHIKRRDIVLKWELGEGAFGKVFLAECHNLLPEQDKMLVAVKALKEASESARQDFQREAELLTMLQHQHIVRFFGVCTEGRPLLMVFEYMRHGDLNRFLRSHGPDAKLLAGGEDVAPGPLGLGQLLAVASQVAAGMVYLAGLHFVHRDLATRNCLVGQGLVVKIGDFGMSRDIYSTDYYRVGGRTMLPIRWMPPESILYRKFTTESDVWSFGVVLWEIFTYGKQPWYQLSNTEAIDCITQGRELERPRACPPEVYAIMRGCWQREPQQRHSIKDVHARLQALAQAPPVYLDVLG
Text: as §1

[8] = molecular target: T1, Flt-3 (Homo sapiens, UniProt P36888); experiment: Kinase activity assay, Flt-3; details: Table 1g; read-out: activity toward kinase Flt-3, IC50
T1 sequence (P36888 27-993): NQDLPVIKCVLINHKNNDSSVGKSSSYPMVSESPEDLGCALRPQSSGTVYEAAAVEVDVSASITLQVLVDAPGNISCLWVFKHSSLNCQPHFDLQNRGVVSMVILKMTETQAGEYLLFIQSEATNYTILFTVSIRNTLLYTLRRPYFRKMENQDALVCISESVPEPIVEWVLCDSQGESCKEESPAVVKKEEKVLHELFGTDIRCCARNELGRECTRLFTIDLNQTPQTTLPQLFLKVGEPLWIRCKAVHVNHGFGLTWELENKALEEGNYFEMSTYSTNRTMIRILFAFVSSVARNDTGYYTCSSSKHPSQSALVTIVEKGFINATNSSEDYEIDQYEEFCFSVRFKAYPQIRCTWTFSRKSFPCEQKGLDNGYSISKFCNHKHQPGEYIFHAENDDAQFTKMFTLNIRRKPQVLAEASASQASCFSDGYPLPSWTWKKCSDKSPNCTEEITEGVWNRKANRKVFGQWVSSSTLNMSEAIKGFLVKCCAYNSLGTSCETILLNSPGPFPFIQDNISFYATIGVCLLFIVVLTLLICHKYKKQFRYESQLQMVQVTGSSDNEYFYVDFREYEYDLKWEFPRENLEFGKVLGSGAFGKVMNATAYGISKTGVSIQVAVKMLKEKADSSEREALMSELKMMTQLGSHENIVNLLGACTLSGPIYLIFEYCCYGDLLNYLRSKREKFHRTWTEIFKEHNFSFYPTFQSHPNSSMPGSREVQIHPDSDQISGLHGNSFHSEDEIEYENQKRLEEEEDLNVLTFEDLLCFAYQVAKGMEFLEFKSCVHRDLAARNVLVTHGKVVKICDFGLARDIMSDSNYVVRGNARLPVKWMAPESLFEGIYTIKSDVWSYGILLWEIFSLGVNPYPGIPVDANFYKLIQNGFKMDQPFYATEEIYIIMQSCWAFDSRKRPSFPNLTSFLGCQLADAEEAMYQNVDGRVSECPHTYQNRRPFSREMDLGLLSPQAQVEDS
Text: as §1

[9] = molecular target: Src (Homo sapiens, UniProt P12931); experiment: Kinase activity assay, Src; details: Table 1k; read-out: activity toward kinase Src, IC50
Src, sequence (P12931 whole entry): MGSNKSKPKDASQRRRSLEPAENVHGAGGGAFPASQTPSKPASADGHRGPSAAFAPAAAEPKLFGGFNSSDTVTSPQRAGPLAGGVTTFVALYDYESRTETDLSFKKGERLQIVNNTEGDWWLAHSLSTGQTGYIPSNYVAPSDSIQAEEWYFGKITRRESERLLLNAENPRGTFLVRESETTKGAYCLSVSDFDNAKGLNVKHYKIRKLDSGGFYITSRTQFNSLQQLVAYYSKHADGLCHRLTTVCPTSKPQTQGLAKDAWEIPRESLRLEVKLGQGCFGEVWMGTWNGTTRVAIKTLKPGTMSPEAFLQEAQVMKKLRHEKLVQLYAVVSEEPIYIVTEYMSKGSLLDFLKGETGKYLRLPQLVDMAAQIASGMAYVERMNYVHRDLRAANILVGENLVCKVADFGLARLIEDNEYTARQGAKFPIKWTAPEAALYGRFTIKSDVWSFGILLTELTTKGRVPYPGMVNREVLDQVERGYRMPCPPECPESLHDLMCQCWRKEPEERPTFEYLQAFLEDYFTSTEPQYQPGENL
Text: as §1

Measured: IC50

C-Raf, sequence (P04049 whole entry): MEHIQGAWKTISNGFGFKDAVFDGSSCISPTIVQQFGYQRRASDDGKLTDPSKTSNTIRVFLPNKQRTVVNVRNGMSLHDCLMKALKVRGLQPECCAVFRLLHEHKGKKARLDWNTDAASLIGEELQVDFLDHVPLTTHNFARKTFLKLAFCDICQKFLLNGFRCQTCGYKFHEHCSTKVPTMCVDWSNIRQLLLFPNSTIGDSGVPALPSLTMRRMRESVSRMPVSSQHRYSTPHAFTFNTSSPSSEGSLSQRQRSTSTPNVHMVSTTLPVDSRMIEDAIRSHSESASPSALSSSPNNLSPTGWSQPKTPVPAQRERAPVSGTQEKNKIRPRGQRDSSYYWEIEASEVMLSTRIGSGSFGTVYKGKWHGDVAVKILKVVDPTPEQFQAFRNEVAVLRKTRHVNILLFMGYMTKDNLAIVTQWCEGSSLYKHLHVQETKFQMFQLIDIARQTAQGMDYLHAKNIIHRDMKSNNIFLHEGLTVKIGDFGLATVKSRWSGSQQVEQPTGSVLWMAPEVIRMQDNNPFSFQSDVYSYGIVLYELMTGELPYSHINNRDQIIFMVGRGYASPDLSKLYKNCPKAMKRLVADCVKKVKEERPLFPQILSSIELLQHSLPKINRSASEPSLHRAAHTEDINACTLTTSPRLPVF

Fc1ccc(CNc2ccc(Cc3c[nH]c4ncncc34)c(F)n2)nc1 [P-0041, (5-Fluoro-pyridin-2-ylmethyl)-[6-fluoro-5-(7H-pyrrolo[2,3-d]pyrimidin-5-ylmethyl)-pyridin-2-yl]-amine]
≤ 10 µM: [1] | [2] | [3] | [4] | [5]

COc1ncnc2[nH]cc(Cc3cnc(NCc4ccc(C(F)(F)F)nc4)c(F)c3)c12 [P-0103, [3-Fluoro-5-(4-methoxy-7H-pyrrolo[2,3-d]pyrimidin-5-ylmethyl)-pyridin-2-yl]-(6-trifluoromethyl-pyridin-3-ylmethyl)-amine]
not listed: [8] | [9]
≤ 10 µM: all other assays above

CC(C)Oc1ncccc1CNc1ccc(Cc2c[nH]c3ncncc23)c(F)n1 [P-0057, [6-Fluoro-5-(7H-pyrrolo[2,3-d]pyrimidin-5-ylmethyl)-pyridin-2-yl]-(2-isopropoxy-pyridin-3-ylmethyl)-amine]
≤ 10 µM: [1] | [2] | [3] | [5] | [7]

c1cnc(OC2CCCC2)c(CNc2ncc(Cc3c[nH]c4ncncc34)cn2)c1 [P-0086, (2-Cyclopentyloxy-pyridin-3-ylmethyl)-[5-(7H-pyrrolo[2,3-d]pyrimidin-5-ylmethyl)-pyrimidin-2-yl]-amine]
not listed: [7] | [8] | [9]
≤ 10 µM: all other assays above

Fc1nc(NCc2ccc(N3CCOCC3)nc2)ccc1Cc1c[nH]c2ncncc12 [P-0039, [6-Fluoro-5-(7H-pyrrolo[2,3-d]pyrimidin-5-ylmethyl)-pyridin-2-yl]-(6-morpholin-4-yl-pyridin-3-ylmethyl)-amine]
≤ 10 µM: [1] | [2] | [3] | [4]

COc1ccc(CNc2ccc(Cc3c[nH]c4ncncc34)cn2)cn1 [P-0002, (6-Methoxy-pyridin-3-ylmethyl)-[5-(7H-pyrrolo[2,3-d]pyrimidin-5-ylmethyl)-pyridin-2-yl]-amine]
≤ 10 µM: [2] | [3] | [4] | [8] | [5]

COc1ncnc2[nH]cc(Cc3cnc(NCc4ccc(C(F)(F)F)nc4)nc3)c12 [P-0102, [5-(4-Methoxy-7H-pyrrolo[2,3-d]pyrimidin-5-ylmethyl)-pyrimidin-2-yl]-(6-trifluoromethyl-pyridin-3-ylmethyl)-amine]
not listed: [8] | [9]
≤ 10 µM: all other assays above

COc1ccc(CNc2ccc(C(=O)c3c[nH]c4ncncc34)cn2)cn1 [P-0008, {6-[(6-Methoxy-pyridin-3-ylmethyl)-amino]-pyridin-3-yl}-(7H-pyrrolo[2,3-d]pyrimidin-5-yl)-methanone]
≤ 10 µM: [2] | [4] | [8] | [5]

Fc1nc(NCc2cncc(Cl)c2)ccc1Cc1c[nH]c2ncncc12 [P-0044, (5-Chloro-pyridin-3-ylmethyl)-[6-fluoro-5-(7H-pyrrolo[2,3-d]pyrimidin-5-ylmethyl)-pyridin-2-yl]-amine]
≤ 10 µM: [1] | [2] | [3] | [4]

COc1ncc(CNc2ccc(Cc3c[nH]c4ncncc34)c(F)n2)cc1F [P-0010, (5-Fluoro-6-methoxy-pyridin-3-ylmethyl)-[6-fluoro-5-(7H-pyrrolo[2,3-d]pyrimidin-5-ylmethyl)-pyridin-2-yl]-amine]
≤ 10 µM: [2] | [3] | [8] | [7]

CC(C)c1ncc(CNc2ccc(Cc3c[nH]c4ncncc34)c(F)n2)cn1 [P-0079, [6-Fluoro-5-(7H-pyrrolo[2,3-d]pyrimidin-5-ylmethyl)-pyridin-2-yl]-(2-isopropyl-pyrimidin-5-ylmethyl)-amine]
≤ 10 µM: [2] | [3] | [9]

CS(=O)(=O)c1ccc(F)cc1CNc1ccc(Cc2c[nH]c3ncncc23)c(F)n1 [P-0052, (5-Fluoro-2-methanesulfonyl-benzyl)-[6-fluoro-5-(7H-pyrrolo[2,3-d]pyrimidin-5-ylmethyl)-pyridin-2-yl]-amine]
≤ 10 µM: [1] | [6] | [3] | [4] | [7]

COc1cc(Cc2c[nH]c3ncnc(OC)c23)cnc1NCc1ccc(C(F)(F)F)nc1 [P-0096, [3-Methoxy-5-(4-methoxy-7H-pyrrolo[2,3-d]pyrimidin-5-ylmethyl)-pyridin-2-yl]-(6-trifluoromethyl-pyridin-3-ylmethyl)-amine]
≤ 10 µM: [1] | [2] | [6] | [3] | [5]

FC(F)(F)c1ccc(CNc2ccc(Cc3c[nH]c4ncncc34)cn2)cn1 [P-0004, [5-(7H-Pyrrolo[2,3-d]pyrimidin-5-ylmethyl)-pyridin-2-yl]-(6-trifluoromethyl-pyridin-3-ylmethyl)-amine]
≤ 10 µM: [1] | [2] | [3] | [4] | [5]

COc1ncnc2[nH]cc(Cc3ccc(NCc4ccc(C(F)(F)F)nc4)nc3)c12 [P-0100, [5-(4-Methoxy-7H-pyrrolo[2,3-d]pyrimidin-5-ylmethyl)-pyridin-2-yl]-(6-trifluoromethyl-pyridin-3-ylmethyl)-amine]
not listed: [8] | [9]
≤ 10 µM: all other assays above

COc1ccc(CNc2ccc(Cc3c[nH]c4ncncc34)c(F)n2)c(OC)n1 [P-0043, (2,6-Dimethoxy-pyridin-3-ylmethyl)-[6-fluoro-5-(7H-pyrrolo[2,3-d]pyrimidin-5-ylmethyl)-pyridin-2-yl]-amine]
≤ 10 µM: [2] | [6] | [3] | [5]

Fc1nc(NCc2cccnc2OC2CCCC2)ccc1Cc1c[nH]c2ncncc12 [P-0070, (2-Cyclopentyloxy-pyridin-3-ylmethyl)-[6-fluoro-5-(7H-pyrrolo[2,3-d]pyrimidin-5-ylmethyl)-pyridin-2-yl]-amine]
not listed: [8] | [9]
≤ 10 µM: all other assays above

FC(F)(F)c1ccc(CNc2ccc(Cc3c[nH]c4ncnc(C5CCCC5)c34)cn2)cn1 [P-0104, [5-(4-Cyclopentyl-7H-pyrrolo[2,3-d]pyrimidin-5-ylmethyl)-pyridin-2-yl]-(6-trifluoromethyl-pyridin-3-ylmethyl)-amine]
≤ 10 µM: [3] | [8] | [5]

Fc1nc(NCc2cccnc2OCC(F)(F)F)ccc1Cc1c[nH]c2ncncc12 [P-0051, [6-Fluoro-5-(7H-pyrrolo[2,3-d]pyrimidin-5-ylmethyl)-pyridin-2-yl]-[2-(2,2,2-trifluoro-ethoxy)-pyridin-3-ylmethyl]-amine]
not listed: [6] | [8] | [9]
≤ 10 µM: all other assays above
